In ChEMBL document CHEMBL3045467, “Major alkaloidal constituent from Impatiens niamniamensis seeds as antihyperglycemic agent” (2011):

Columns and labels:
Assay type in all cases: functional
Design in all cases: scale not given: the % may be the effect or the level left
Rattus norvegicus [1] = experiment: Antihyperglycemic activity in albino Rattus norvegicus Sprague-Dawley (rat) streptozotocin-induced diabetic model assessed as reduction of AUC of blood glucose level at 50 mg/kg, po after 5 hr
Rattus norvegicus [2] = experiment: Antihyperglycemic activity in albino Rattus norvegicus Sprague-Dawley (rat) streptozotocin-induced diabetic model assessed as reduction of AUC of blood glucose level at 50 mg/kg, po after 24 hr
Rattus norvegicus [3] = experiment: Antihyperglycemic activity in albino Rattus norvegicus Sprague-Dawley (rat) streptozotocin-induced diabetic model assessed as reduction of AUC of blood glucose level at 100 mg/kg, po after 5 hr
Rattus norvegicus [4] = experiment: Antihyperglycemic activity in albino Rattus norvegicus Sprague-Dawley (rat) streptozotocin-induced diabetic model assessed as reduction of AUC of blood glucose level at 100 mg/kg, po after 24 hr

Row | Compound | Activity (Rattus norvegicus [1]) | Activity (Rattus norvegicus [2]) | Activity (Rattus norvegicus [3]) | Activity (Rattus norvegicus [4])
1 | C[N+](C)(C)[C@@H](Cc1c[nH]c2ccccc12)C(=O)[O-] [Hypaphorine] | 27.8% | 20.4% | – | –
2 | CN(C)C(=N)NC(=N)N [METFORMIN] | – | – | 26% | 24.9%
